Assay results from ChEMBL document CHEMBL1155960, “Design, synthesis and preliminary biological evaluation of acridine compounds as potential agents for a combined targeted chemo-radionuclide therapy approach to melanoma” (Bioorg Med Chem, 2008).

What was measured:
[1] = mouse, in vivo, iv, 72 h
Description: Biodistribution in melanoma of C57BL/6 mouse bearing mouse B16-F0 cells at 0.74 to 0.92 MBq, iv after 72 hrs

Brain [2] = details: mouse, in vivo, iv, 1 h
Description: Biodistribution in brain of C57BL/6 mouse bearing mouse B16-F0 cells at 0.74 to 0.92 MBq, iv after 1 hr

Brain [3] = details: mouse, in vivo, iv, 3 h
Description: Biodistribution in brain of C57BL/6 mouse bearing mouse B16-F0 cells at 0.74 to 0.92 MBq, iv after 3 hrs

[4] = mouse, in vivo, iv, 1 h
Description: Biodistribution in intestinal content of C57BL/6 mouse bearing mouse B16-F0 cells at 0.74 to 0.92 MBq, iv after 1 hr

[5] = mouse, in vivo, iv, 3 h
Description: Biodistribution in intestinal content of C57BL/6 mouse bearing mouse B16-F0 cells at 0.74 to 0.92 MBq, iv after 3 hrs

[6] = mouse, in vivo, iv, 6 h
Description: Biodistribution in intestinal content of C57BL/6 mouse bearing mouse B16-F0 cells at 0.74 to 0.92 MBq, iv after 6 hrs

Liver [7] = details: mouse, in vivo, iv, 3 h
Description: Biodistribution in liver of C57BL/6 mouse bearing mouse B16-F0 cells at 0.74 to 0.92 MBq, iv after 3 hrs

Liver [8] = details: mouse, in vivo, iv, 24 h
Description: Biodistribution in liver of C57BL/6 mouse bearing mouse B16-F0 cells at 0.74 to 0.92 MBq, iv after 24 hrs

Muscle tissue [9] = details: mouse, in vivo, iv, 1 h
Description: Biodistribution in muscle of C57BL/6 mouse bearing mouse B16-F0 cells at 0.74 to 0.92 MBq, iv after 1 hr

Muscle tissue [10] = details: mouse, in vivo, iv, 3 h
Description: Biodistribution in muscle of C57BL/6 mouse bearing mouse B16-F0 cells at 0.74 to 0.92 MBq, iv after 3 hrs

Muscle tissue [11] = details: mouse, in vivo, iv, 6 h
Description: Biodistribution in muscle of C57BL/6 mouse bearing mouse B16-F0 cells at 0.74 to 0.92 MBq, iv after 6 hrs

Lung [12] = details: mouse, in vivo, iv, 1 h
Description: Biodistribution in lung of C57BL/6 mouse bearing mouse B16-F0 cells at 0.74 to 0.92 MBq, iv after 1 hr

Lung [13] = details: mouse, in vivo, iv, 3 h
Description: Biodistribution in lung of C57BL/6 mouse bearing mouse B16-F0 cells at 0.74 to 0.92 MBq, iv after 3 hrs

Lung [14] = details: mouse, in vivo, iv, 6 h
Description: Biodistribution in lung of C57BL/6 mouse bearing mouse B16-F0 cells at 0.74 to 0.92 MBq, iv after 6 hrs

Spleen [15] = details: mouse, in vivo, iv, 1 h
Description: Biodistribution in spleen of C57BL/6 mouse bearing mouse B16-F0 cells at 0.74 to 0.92 MBq, iv after 1 hr

Spleen [16] = details: mouse, in vivo, iv, 3 h
Description: Biodistribution in spleen of C57BL/6 mouse bearing mouse B16-F0 cells at 0.74 to 0.92 MBq, iv after 3 hrs

Kidney [17] = details: mouse, in vivo, iv, 1 h
Description: Biodistribution in kidney of C57BL/6 mouse bearing mouse B16-F0 cells at 0.74 to 0.92 MBq, iv after 1 hr

Kidney [18] = details: mouse, in vivo, iv, 3 h
Description: Biodistribution in kidney of C57BL/6 mouse bearing mouse B16-F0 cells at 0.74 to 0.92 MBq, iv after 3 hrs

Kidney [19] = details: mouse, in vivo, iv, 6 h
Description: Biodistribution in kidney of C57BL/6 mouse bearing mouse B16-F0 cells at 0.74 to 0.92 MBq, iv after 6 hrs

Blood [20] = details: mouse, in vivo, iv, 1 h
Description: Biodistribution in blood of C57BL/6 mouse bearing mouse B16-F0 cells at 0.74 to 0.92 MBq, iv after 1 hr

Blood [21] = details: mouse, in vivo, iv, 3 h
Description: Biodistribution in blood of C57BL/6 mouse bearing mouse B16-F0 cells at 0.74 to 0.92 MBq, iv after 3 hrs

[22] = mouse, in vivo, iv, 1 h; remark: listed apart in the source
Description: Biodistribution in uvea of C57BL/6 mouse bearing mouse B16-F0 cells at 0.74 to 0.92 MBq, iv after 1 hr

[23] = mouse, in vivo, iv, 3 h; remark: listed apart in the source
Description: Biodistribution in uvea of C57BL/6 mouse bearing mouse B16-F0 cells at 0.74 to 0.92 MBq, iv after 3 hrs

[24] = mouse, in vivo, iv, 6 h; remark: listed apart in the source
Description: Biodistribution in uvea of C57BL/6 mouse bearing mouse B16-F0 cells at 0.74 to 0.92 MBq, iv after 6 hrs

[25] = mouse, in vivo, iv, 24 h
Description: Biodistribution in uvea of C57BL/6 mouse bearing mouse B16-F0 cells at 0.74 to 0.92 MBq, iv after 24 hrs

[26] = mouse, in vivo, iv, 72 h; remark: listed apart in the source
Description: Biodistribution in uvea of C57BL/6 mouse bearing mouse B16-F0 cells at 0.74 to 0.92 MBq, iv after 72 hrs

physchem = details: phosphate buffer solution, pH 7.4
Description: Partition coefficient, log P in phosphate buffer solution at pH 7.4

[27] = mouse, in vivo, iv, 72 h; remark: listed apart in the source
Description: Drug excretion in mouse B16-F0 cells bearing C57BL/6 mouse urine at 0.74 to 0.92 MBq, iv after 72 hrs

[28] = mouse, in vivo, iv, 72 h; remark: listed apart in the source
Description: Drug excretion in mouse B16-F0 cells bearing C57BL/6 mouse feces at 0.74 to 0.92 MBq, iv after 72 hrs

[29] = mouse, in vivo, iv, 1 h; remark: listed apart in the source
Description: Biodistribution in stomach content of C57BL/6 mouse bearing mouse B16-F0 cells at 0.74 to 0.92 MBq, iv after 1 hr

[30] = mouse, in vivo, iv, 3 h; remark: listed apart in the source
Description: Biodistribution in stomach content of C57BL/6 mouse bearing mouse B16-F0 cells at 0.74 to 0.92 MBq, iv after 3 hrs

[31] = mouse, in vivo, iv, 6 h; remark: listed apart in the source
Description: Biodistribution in stomach content of C57BL/6 mouse bearing mouse B16-F0 cells at 0.74 to 0.92 MBq, iv after 6 hrs

Liver [32] = details: mouse, in vivo, iv, 1 h
Description: Biodistribution in liver of C57BL/6 mouse bearing mouse B16-F0 cells at 0.74 to 0.92 MBq, iv after 1 hr

Liver [33] = details: mouse, in vivo, iv, 6 h
Description: Biodistribution in liver of C57BL/6 mouse bearing mouse B16-F0 cells at 0.74 to 0.92 MBq, iv after 6 hrs

| Structure (SMILES) | Drug uptake [1] | Drug uptake (Brain [2]) | Drug uptake (Brain [3]) | Drug uptake [4] | Drug uptake [5] | Drug uptake [6] | Drug uptake (Liver [7]) | Drug uptake (Liver [8]) | Drug uptake (Muscle tissue [9]) | Drug uptake (Muscle tissue [10]) | Drug uptake (Muscle tissue [11]) | Drug uptake (Lung [12]) | Drug uptake (Lung [13]) | Drug uptake (Lung [14]) | Drug uptake (Spleen [15]) | Drug uptake (Spleen [16]) | Drug uptake (Kidney [17]) | Drug uptake (Kidney [18]) | Drug uptake (Kidney [19]) | Drug uptake (Blood [20]) | further results |
| --- | --- | --- | --- | --- | --- | --- | --- | --- | --- | --- | --- | --- | --- | --- | --- | --- | --- | --- | --- | --- | --- |
| CCN(CC)CCNC(=O)c1cccc2c(=O)c3cc(I)ccc3[nH]c12.Cl | 17.5 % ID/g | 1.6 % ID/g | 1.2 % ID/g | 22.7 % ID/g | 27.81 % ID/g | 32.9 % ID/g | 9.3 % ID/g | 1.2 % ID/g | 1.9 % ID/g | 1.4 % ID/g | 0.9 % ID/g | 23.9 % ID/g | 14 % ID/g | 10 % ID/g | 13.9 % ID/g | 9.9 % ID/g | 17.6 % ID/g | 13 % ID/g | 8.9 % ID/g | 2.08 % ID/g | Drug uptake (Blood [21]): 1.4 % ID/g; Drug uptake [22]: 15.2 % ID/g; Drug uptake [23]: 16.9 % ID/g; Drug uptake [24]: 19.5 % ID/g; Drug uptake [25]: 27.5 % ID/g; Drug uptake [26]: 26.4 % ID/g; logD (physchem): 0.27 |
| CCN(CC)CCNC(=O)c1cccc2c(=O)c3cc([125I])ccc3[nH]c12.Cl |  |  |  |  |  |  |  |  |  |  |  |  |  |  |  |  |  |  |  |  | Drug uptake [27]: 10.4 %ID; Drug uptake [28]: 38.4 %ID |
| CCN(CC)CCNC(=O)c1ccc(I)cc1.Cl | 0.88 % ID/g | 1.5 % ID/g | 0.8 % ID/g | 7.4 % ID/g | 3.7 % ID/g | 3.3 % ID/g | 3.3 % ID/g | 0.4 % ID/g | 1.3 % ID/g | 0.4 % ID/g | 0.1 % ID/g | 5.5 % ID/g | 2 % ID/g | 1 % ID/g | 4 % ID/g | 0.8 % ID/g | 7.3 % ID/g | 3.1 % ID/g | 1.6 % ID/g | 1.1 % ID/g | Drug uptake [29]: 10.1 % ID/g; Drug uptake [30]: 4.3 % ID/g; Drug uptake [31]: 4.5 % ID/g; Drug uptake (Liver [32]): 5.9 % ID/g; Drug uptake (Liver [33]): 2.6 % ID/g; Drug uptake (Blood [21]): 0.2 % ID/g; Drug uptake [22]: 13.1 % ID/g; Drug uptake [23]: 12 % ID/g; Drug uptake [24]: 13 % ID/g; Drug uptake [25]: 6.1 % ID/g; Drug uptake [26]: 3.8 % ID/g; Drug uptake [27]: 83.1 %ID; Drug uptake [28]: 4.8 %ID; logD (physchem): 1.34 |
